Results from EP2385948B1, “FUSED THIAZOLO AND OXAZOLO PYRIMIDINONES” (Torrent Pharmaceuticals Limited, priority 2009, dated 2011).
Counter-ions that a name gives are not always drawn.

Columns and labels:
adrenomedullin mRNA = assay: In vitro induction of adrenomedullin mRNA (real-time PCR, normalized to 18S rRNA); format: cell-based; conditions: Hep3B cell line, relative to vehicle control; for fold induction at 200 µM: Homo sapiens, Hep3B, 6 h
Experimental: Hep3B cell line (ATCC HB8064) was employed. […] At the end of 6 hours, cells were lysed and total RNA was isolated. Expression of adrenomedullin mRNA along-with expression of 18S rRNA was monitored by real-time PCR. Adrenomedullin mRNA expression was normalized relative to the expression of 18S rRNA. The results were expressed as fold induction of adrenomedullin mRNA relative to vehicle treated control.

VEGF = assay: In vitro induction of VEGF (ELISA of cell culture supernatant); format: cell-based; conditions: Homo sapiens, Hep3B cell line, 16 hours, relative to vehicle control
Experimental: Hep3B cell line (ATCC HB8064) was employed. […] Supernatant obtained was analyzed for VEGF by ELISA (R&D systems, USA). […]

erythropoietin = assay: In vitro erythropoietin induction (ELISA of cell culture supernatant); conditions: Homo sapiens, Hep3B, 16 h; for fold induction at 200 µM: read-out: EPO fold induction, Hep3B cell line, 200 uM, 16 hours, relative to vehicle control
Experimental: Hep3B cell line (ATCC HB8064) was employed. Induction of erythropoietin was carried out for the indicated dose of compounds for 16 hours duration. At the end of 16 hours, cell culture medium was collected and centrifuged to remove any debris. Supernatant obtained was analyzed for erythropoietin by ELISA (R&D systems, USA). The results were expressed as fold induction as compared to vehicle control.

[1] = tested on: 5/6 nephrectomized (5/6 NX) rats; assay: Anemia associated with chronic kidney disease, 5/6 nephrectomized rat model; format: in vivo; conditions: for fold increase in reticulocyte production index: compared to control group
Experimental: The efficacy of the test compound to correct anemia associated with CKD was studied in an animal model of anemia - 5/6 nephrectomized (5/6 NX) rats^15,16,17. Animals were randomized based upon anemia and kidney dysfunction parameters and divided into two groups. One group received compound-10 (20mg/kg; b.i.d. i.p) for seven days while the control received respective vehicle. Blood sampling was done on day 3 and 7 post initiation of drug administration to check early markers of anemia correction.

[2] = tested on: renal ischemia and reperfusion induced acute kidney injury model in rats; assay: Renal ischemia and reperfusion induced acute kidney injury model; format: in vivo; conditions: 24hrs post initiation of ischemia, from control group
Experimental: The efficacy of test compound to improve renal function was evaluated in a renal ischemia and reperfusion induced acute kidney injury model in rats. The beneficial effect of the compound was evaluated using two different treatment protocols. In one protocol treatment with test compound was given before onset of ischemia (pre-treatment) and the other protocol involed treatment with test compound initiated after the onset of ischemia (post-treatment).
Pre-ischemia intervention protocol: Rats were randomised into two groups, compound treated and vehicle control. Before initiation of bilateral renal ischemia, the animals in compound treatment group received multiple doses of compound no. 10 (i.e. pre treated) and control group received vehicle by i.p route.
Post-ischemia intervention protocol: Rats were randomised into two groups, compound treated and vehicle control. After intiation of bilateral renal ischemia, the animals in compound treatment group received multiple doses of compound no. 10 (i.e. post treated) and control group received vehicle in similar fashion by i.p route.
Induction of Renal ischemia and reperfusion in rats: All animals were anesthetized with pentobarbital sodium (50 mg/kg body wt). Homeothermic blanket was used to maintain a constant body temperature of 37°C during surgery and ischemia. A midline incision was made at the ventral side to access the kidneys and both renal pedicle were isolated and occluded for 35 mins using microclips, which was verified by the change of the renal color. After an ischemic period of 35 min, the microclips were removed and reperfusion initiated. The abdomen was closed and skin & muscles sutured and animal allowed to recover. Blood sample of 300 µl was taken via sublingual vein puncture at various predetermined time points.
In both protocols tested i.e pre-ischemia intervention and post-ischemia intervention, renal function improvement was assessed by measuring serum creatinine and BUN (blood urea nitrogen) at various time points post ischemia. Results are expressed below as % reduction from their control group at 24hrs post initiation of ischemia.

[3] = day 7 of treatment, 5/6 NX rats, 20mg/kg b.i.d. i.p, compared to control
[4] = Post-ischemia intervention, i.p. 0.3mg/kg as 1st dose & 0.1mg/kg as subsequent dose
[5] = Pre-ischemia intervention, i.p. 10 mg/kg multiple dose

| Compound | fold induction at 200 µM (adrenomedullin mRNA) | fold induction at 200 µM (VEGF) | fold induction at 200 µM (erythropoietin) | also measured |
| --- | --- | --- | --- | --- |
| O=C(O)CNC(=O)c1c(O)nc2sc3c(n2c1=O)CCN(Cc1ccc(Cl)cc1)C3 [Compound 23, {[7-(4-Chloro-benzyl)-2-hydroxy-4-oxo-5,6,7,8-tetrahydro-4H-9-thia-1,4a,7-triaza-fluorene-3-carbonyl]-amino}-acetic acid] | 2 to 4 | 2 to 4 | 9 to 16 | – |
| CC(NC(=O)c1c(O)nc2sc3c(n2c1=O)CCCCC3)C(=O)O (stereo not shown) [Compound 32, 2-[(2-Hydroxy-4-oxo-6,7,8,9-tetrahydro-4H,5H-10-thia-1,4a-diaza-benzo[a]azulene-3-carbonyl)-amino]-propionic acid] | 2 to 4 | 2 to 4 | 9 to 16 | – |
| CC1(C)CCc2c(sc3nc(O)c(C(=O)NCC(=O)O)c(=O)n23)C1 [Compound 34, [(2-Hydroxy-7,7-dimethyl-4-oxo-5,6,7,8-tetrahydro-4H-9-thia-1,4a-diaza-fluorene-3-carbonyl)-amino]-acetic acid] | 5 to 8 | 2 to 4 | > 16 | – |
| O=C(O)CNC(=O)c1c(O)nc2sc3c(n2c1=O)CCN(C(=O)CC1CC1)C3 [Compound 27, {[7-(2-Cyclopropyl-acetyl)-2-hydroxy-4-oxo-5,6,7,8-tetrahydro-4H-9-thia-1,4a,7-triaza-fluorene-3-carbonyl]-amino}-acetic acid] | > 8 | 2 to 4 | 9 to 16 | – |
| O=C(O)CNC(=O)c1c(O)nc2sc3c(n2c1=O)CCCCC3 [Compound 10, [(2-Hydroxy-4-oxo-6,7,8,9-tetrahydro-4H,5H-10-thia-1,4a-diaza-benzo[a]azulene-3-carbonyl)-amino] -acetic acid] | > 8 | 2 to 4 | > 16 | circulating EPO levels ([1]; 5/6 NX rats, 20mg/kg b.i.d. i.p for seven days, vehicle control undetectable (<45 pg/ml)): 115 to 3900 pg/mL; fold increase in reticulocyte production index ([1]; day 3, 5/6 NX rats, 20mg/kg b.i.d. i.p): 3 fold; fold increase in reticulocyte production index ([1]; day 7, 5/6 NX rats, 20mg/kg b.i.d. i.p): 5.6 fold; increase in erythrocyte count [1, 3]: 24%; increase in hematocrit percent [1, 3]: 25%; increase in hemoglobin content [1, 3]: 30%; % reduction BUN [2, 4]: 17.0%; % reduction Ser.Creatinine [2, 4]: 31.0%; % reduction BUN [2, 5]: 18.0%; % reduction Ser.Creatinine [2, 5]: 33.0% |
| O=C(O)CNC(=O)c1c(O)nc2sc3c(n2c1=O)CCN(Cc1ccc(Cl)c(Cl)c1)C3 [Compound 49, {[7-(3,4-Dichloro-benzyl)-2-hydroxy-4-oxo-5,6,7,8-tetrahydro-4H-9-thia-1,4a,7-triaza-fluorene-3-carbonyl]-amino}-acetic acid] | 5 to 8 | – | 5 to 8 | – |
| O=C(O)CNC(=O)c1c(O)nc2sc3c(n2c1=O)CCCCC3 [Compound 82, [(2-Hydroxy-4-oxo-6,7,8,9-tetrahydro-4H,5H-10-thia-1,4a-diaza-benzo[a]azulene-3-carbonyl)-amino]-acetic acid, Disodium salt] | – | – | – | Adrenomedullin mRNA (fold induction) (adrenomedullin mRNA; 200 uM, 6 hours, Disodium salt, 360 min): +++ (+++ indicates 5-8 fold); fold induction at 50 µM (erythropoietin; read-out: EPO fold induction, Hep3B cell line, 50 uM, 16 hours, relative to vehicle control): 9 to 16 |
| O=C(O)CNC(=O)c1c(O)nc2sc3c(n2c1=O)CCN(Cc1ccc(C(F)(F)F)cc1)C3 [Compound 52, {[2-Hydroxy-4-oxo-7-(4-trifluoromethyl-benzyl)-5,6,7,8-tetrahydro-4H-9-thia-1,4a,7-triaza-fluorene-3-carbonyl]-amino}-acetic acid] | 5 to 8 | – | 5 to 8 | – |
